Source: paper PMC12444563 (ACS Omega, 2025)
Entries after “also recorded” stand apart in the source; their conditions may differ. Starred links: 1 amine or outer side, 2 acyl side, 3 side chain; linkers in the order of their positions; H or OH if unused. Non-standard residues stand in square brackets, D forms with d. Residues, ends and D or L forms follow the SMILES beside them. *: point of attachment. Paclitaxel(2'-OCO-DMEDA) = CC(=O)O[C@H]1C(=O)[C@@]2(C)[C@H]([C@H](OC(=O)c3ccccc3)[C@]3(O)C[C@H](OC(=O)[C@H](OC(=O)N(C)CCN(C)*)[C@@H](NC(=O)c4ccccc4)c4ccccc4)C(C)=C1C3(C)C)[C@]1(OC(C)=O)CO[C@@H]1C[C@@H]2O; Dolaproine = CO[C@@H]([C@@H]1CCCN1)[C@@H](C)C(=O)O; Dil = CC[C@H](C)[C@H](NC)[C@@H](CC(=O)O)OC; Fmoc = O=C(OCC1c2ccccc2-c2ccccc21)*; PABC = O=C(OCc1ccc(N[*:1])cc1)[*:2]; X1 = C[C@@H](N*)[C@@H](O)c1ccccc1; NMeV = CN[C@H](C(=O)O)C(C)C

What was measured:
[1] = test system: U87MG cancer cell lines; parameters: method as in PMID 37492088; settings: short-contact time antiproliferative assay; earlier work of the authors; read-out: IC50 against U87MG cancer cell lines; cited from earlier work
[2] = rat plasma (Strain: Sprague Dawley; Innovative Research); settings: 37 °C, up to 4 hours
[3] = test system: bovine spleen Cathepsin B (SigmaAldrich C6286, ≥10 units/mg protein); assay: activated Cathepsin B (1.12 u/mL) in 20 mM NaOAc, 1 mM EDTA, pH 5.4, with L-cysteine; settings: 37 °C, up to 24 h
[4] = human plasma (Pooled; Innovative Research); settings: 37 °C, up to 4 hours
[5] = human liver S9 fraction (male, pooled, Xeno-tech); settings: 37 °C, up to 90 minutes
[6] = rat liver S9 fraction (male, pooled, Xeno-tech); settings: 37 °C, up to 90 minutes
[7] = test system: Cathepsin B (SigmaAldrich C6286); assay: bovine spleen Cathepsin B in 20 mM NaOAc, 1 mM EDTA, pH 5.4, activated with L-cysteine; settings: 37 °C, up to 24 h

Molecule	fragment found [7]	IC50 [1] [nM]	not cleaved [2]	cleaved bond [3]	fragment found [3]	not cleaved [4]	not cleaved [5]	not cleaved [6]	not cleaved [3]
CC[C@H](C)[C@@H]([C@@H](CC(=O)N1CCC[C@H]1[C@H](OC)[C@@H](C)C(=O)N[C@H](C)[C@@H](O)c1ccccc1)OC)N(C)C(=O)[C@@H](NC(=O)[C@@H](NC)C(C)C)C(C)C [MMAE, monomethyl auristatin E] (H-[NMeV]V[Dil][Dolaproine]-X1)	–	2130	–	–	–	–	–	–	–
Fmoc-GFLG-PABC-diamine-PTX (Fmoc-GFLG[PABC]-{Paclitaxel(2'-OCO-DMEDA)}; SMILES CC(=O)O[C@H]1C(=O)[C@@]2(C)[C@H]([C@H](OC(=O)c3ccccc3)[C@]3(O)C[C@H](OC(=O)[C@H](OC(=O)N(C)CCN(C)C(=O)OCc4ccc(NC(=O)CNC(=O)[C@H](CC(C)C)NC(=O)[C@H](Cc5ccccc5)NC(=O)CNC(=O)OCC5c6ccccc6-c6ccccc65)cc4)[C@@H](NC(=O)c4ccccc4)c4ccccc4)C(C)=C1C3(C)C)[C@]1(OC(C)=O)CO[C@@H]1C[C@@H]2O)	–	–	103.3% remaining at 240 min	Gly-Phe, 2 min; also recorded: Gly-PABC	diamine-PTX (fragment II)	93.9% remaining at 240 min	95.232% remaining at 90 min	–	–
Fmoc-GPLG-PABC-diamine-PTX	–	–	100% of residual compound after 4 h (Table S7: 103.0% at 240 min)	Gly-PABC, first_seen, 2 min	diamine-PTX (fragment II), 2 min; also recorded: free PTX, 24 h	100% of residual compound after 4 h (Table S7: 112.1% at 240 min)	more than 94% intact after 1.5 h (Table S7: 94.986% at 90 min)	more than 94% intact after 1.5 h (Table S7: 94.464% at 90 min)	no cleavage between Gly and Pro residues was observed throughout the experiment time

The next lines start with results.

fragment found [7]	Molecule	IC50 [1] [nM]	not cleaved [2]	cleaved bond [3]	fragment found [3]	not cleaved [4]	not cleaved [5]	not cleaved [6]	not cleaved [3]
PABC-diamine-PTX (fragment I)	Fmoc-VA-PABC-diamine-PTX	–	108.0% remaining at 240 min	–	PABC-diamine-PTX (fragment I); also recorded: diamine-PTX (fragment II)	107.1% remaining at 240 min	–	–	–
PABC-diamine-PTX (fragment I)	Fmoc-VCit-PABC-diamine-PTX	–	118.1% remaining at 240 min	–	PABC-diamine-PTX (fragment I); also recorded: diamine-PTX (fragment II)	–	–	–	–
